Common to all, as to assay type: cell-based
Assay [1] relates to ERα Y537S mutant-expressing MCF7 cells. Nature of the assay: Inhibition of proliferation of ERα mutant-expressing MCF7 cells. Conditions: Homo sapiens, 144 h. The text has this: The mutant estrogen receptor α (ERα) Y537S of human ERα protein was obtained by site-directed mutagenesis in a two-primer PCR manner using the cDNA of wild-type ESR1 gene (Accession No. NM000125) as a template. The sequences of the primers used in the mutation are as follows (the underlined nucleotides are the sites of mutation): Y537S: F-AAGAACGTGGTGCCCCTCTCTGACCTGCTGCTGGAGATG (SEQ ID NO: 1); R-CATCTCCAGCAGCAGGTCAGAGAGGGGCACCACGTTCTT (SEQ ID NO: 2). The cDNA of the mutant ESR1 was cloned into the lentiviral vector of interest pCDH-CMV-MCS-EF1-Puro. The lentiviral plasmid bearing the mutant ESR1 gene sequence and the lentiviral packaging plasmid were then transfected into HEK-293T cells (ATCC, CRL-3216) by using Lipofectamine 3000 Transfection Reagent (ThermoFisher Scientific, Cat #L3000075). Forty-eight hours after transfection, the virus-bearing medium supernatant was filtered and ultracentrifuged to obtain a virus precipitate, which was then resuspended in an appropriate amount of medium. The suspension was added to MCF7 cells (ATCC, HTB-22), followed by the addition of polybrene at a final concentration of 8 μg/mL. The mixture was incubated overnight. Two days after transfection, 1 μg/mL puromycin was added to the cell culture liquid for resistance screening. About two weeks later, an MCF7 cell line capable of stably expressing the ERαY537S mutant was obtained.
The ERα mutant-expressing MCF7 cells were cultured in an MEM (GE Healthcare, SH30024.01) complete medium containing 10% fetal bovine serum. On the first day of the experiment, the cells were seeded into a 96-well plate with complete medium at a density of 3,000 cells/well to form 100 μL of cell suspension per well. The plate was incubated overnight in a cell incubator at 37° C. with 5% CO2. The following day the medium was removed, and 135 μL of an MEM incomplete medium containing 2% fetal bovine serum, and 15 μL of a test compound prepared at different concentrations with the incomplete medium were added to each well. The final concentrations of the compound were 9 concentration points obtained by 4-fold serial dilution from 100 nM. A blank control containing 0.5% DMSO was set. The plate was incubated in a cell incubator at 37° C. with 5% CO2 for 144 h. On day 8, the 96-well cell culture plate was taken out. 150 μL of CellTiter-Glo® Luminescent Cell Viability Assay (Promega, G7573) was added to each well. The plate was let stand at room temperature for 10 min, and the luminescence signal values was read using a multilabel microplate reader (PerkinElmer, VICTOR 3). The IC50 values for the inhibitory activity of the compounds were calculated according to the compound concentrations and the luminescence signal values and are shown in Table 3.

Another assay has as its system MCF-7 cells. As to the kind of experiment: Inhibition of proliferation of MCF-7 cells (ATP method, Cell Titer-Glo). The note with it: Homo sapiens, MCF7; MCF-7 cells, 72 h. As to the method:
This experiment was intended to test the inhibitory effects of the compounds disclosed herein on the proliferation of MCF-7 Cells by using the ATP method, and to evaluate the in vitro activity of the compounds according to the IC50 values.
MCF-7 cells (TCHu74, National Collection of Authenticated Cell Cultures) were seeded into a 96-well plate with an MEM (hyclone, SH30024.01B) medium containing 10% FBS (Gibco, 10099-141), 1% sodium pyruvate (sigma, 58636) and 1% non-essential amino acid (sigma, M7145) at a density of 4,000 cells/well and cultured at 37° C. with 5% CO2. 20 mM stock solutions of the compounds are prepared, serially diluted with 100% DMSO to a final concentration of 1000×, and then diluted 20-fold with a medium containing 2% FBS. After the cells were cultured for 24 h, the medium was removed. 90 μL of the medium containing 2% FBS and 10 μL of a drug were added to each well, and 10 μL of DMSO was added to the control group. The mixtures were well mixed by gentle shaking. The blank group contained only 100 μL of the medium containing 2% FBS. The cells were cultured in an incubator at 37° C. with 5% CO2 for 72 h, and then 50 μL of mixed Cell Titer-Glo (Promega, G7571) was added to each well. The mixtures were well mixed by shaking and let stand at room temperature for 10 min, and the chemiluminescence signal values were determined.
The chemiluminescence signal value was plotted against the compound concentration (in log form) using Graphpad Prism, and the IC50 values of the compounds were obtained.
Background: In ATP-based viability assays light output follows the ATP content of the culture.

The target in another assay is ER (estrogen receptor) (Homo sapiens (Human), UniProt P03372). Nature of the assay: Inhibition of binding of E to ER (MCF-7/ERE-luciferase reporter cells). Conditions: MCF-7/ERE-luciferase cells, 0.1 nM estradiol, 24 h. On the procedure:
The compounds of the present disclosure can inhibit the binding of E (estrogen) to ER (estrogen receptor), thereby blocking the binding of the complex of E and ER to ERE (estrogen response element), and consequently the expression of downstream luciferase proteins. The inhibitory effects of the compounds of the present disclosure on the binding of E to ER was tested by using the following method.
An ERE was cloned upstream of the luciferase gene, and MCF-7/ERE-luciferase monoclonal cells were selected by transfection of MCF-7 (TCHu74, National Collection of Authenticated Cell Cultures). The MCF-7/ERE-luciferase cells were seeded into a 96-well plate with an MEM (hyclone, SH30024.01B) medium containing 10% charcoal stripped FBS (Moregate, FBSF), 1% sodium pyruvate (sigma, S8636), 1% non-essential amino acids (sigma, M7145) and 500 μg/mL G418 at a density of 30,000 cells/well and cultured at 37° C. with 5% CO2. 20 mM stock solutions of the drugs are prepared, serially diluted 10-fold with 100% DMSO, and then diluted 20-fold with the medium. After the cells were cultured for 24 h, the medium was removed. 0.1 nM estradiol (sigma, E2758) and 10 μL of a medium-diluted drug were added to each well, and DMSO was added to the control group. The mixtures were well mixed by gentle shaking. The cells were cultured in an incubator at 37° C. with 5% CO2 for 24 h, and then the cell culture liquid was removed, followed by the addition of 50 μL of a luciferase substrate (Promega, E6110) to each well. The plate was let stand at room temperature in the dark for 10-15 min, and the chemiluminescence signal values were determined.
The inhibitory effects of the compounds of the present disclosure on the binding of E to ER were tested through the above experiment. The chemiluminescence signal value was plotted against the compound concentration (in log form) using Graphpad Prism, and the IC50 values of the compounds were obtained.
For orientation: A reporter such as luciferase makes a cellular process visible.

Each structure is given as a SMILES string.

What is called IC50 is the point on the concentration scale where inhibition reaches its midpoint. Read a high IC50 as weaker potency in that assay.

Sequence of ER (estrogen receptor) (P03372 whole entry): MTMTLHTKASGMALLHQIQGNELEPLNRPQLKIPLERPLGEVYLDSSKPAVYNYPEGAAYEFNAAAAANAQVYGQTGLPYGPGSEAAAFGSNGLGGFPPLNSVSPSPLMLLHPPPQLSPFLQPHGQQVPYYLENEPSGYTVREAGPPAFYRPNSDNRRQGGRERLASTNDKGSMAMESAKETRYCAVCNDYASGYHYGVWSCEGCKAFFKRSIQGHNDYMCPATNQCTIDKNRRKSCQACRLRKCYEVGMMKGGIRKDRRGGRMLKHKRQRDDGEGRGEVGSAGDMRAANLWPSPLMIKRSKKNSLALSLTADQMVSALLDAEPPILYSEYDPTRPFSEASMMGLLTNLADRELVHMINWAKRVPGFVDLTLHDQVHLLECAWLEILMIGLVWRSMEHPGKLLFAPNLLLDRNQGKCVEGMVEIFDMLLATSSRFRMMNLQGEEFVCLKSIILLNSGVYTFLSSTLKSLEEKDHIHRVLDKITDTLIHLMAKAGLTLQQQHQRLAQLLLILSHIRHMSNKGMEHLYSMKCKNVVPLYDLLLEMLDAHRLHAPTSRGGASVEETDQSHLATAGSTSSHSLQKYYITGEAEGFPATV

Turning to `C[C@@H]1Cc2cc3c(cc2[C@@H](c2c(F)cc(N[C@H]4CCN(CCCF)C4)cc2F)N1CC(F)(F)F)OCO3` [Example 2, (S)—N-(3,5-difluoro-4-((5S,7R)-7-methyl-6-(2,2,2-trifluoroethyl)-5,6,7,8-tetrahydro-[1,3]dioxolo[4,5-g]isoquinolin-5-yl)phenyl)-1-(3-fluoropropyl)pyrrolidin-3-amine], the values for the 50% inhibitory concentration (IC50) (in assay [1]; with MCF-7 cells; at ER (estrogen receptor)) were 0.78 nM, 0.17 nM and 0.1 nM, respectively.
For `C[C@@H]1Cc2cc3c(cc2[C@@H](c2ccc(NC4CN(CCCF)C4)cn2)N1CC(F)(F)F)OCO3` [Example 17, N-(1-(3-fluoropropyl)azetidin-3-yl)-6-((5S,7R)-7-methyl-6-(2,2,2-trifluoroethyl)-5,6,7,8-tetrahydro-[1,3]dioxolo[4,5-g]isoquinolin-5-yl)pyridin-3-amine] the same measures were 2.19 nM, 0.44 nM and 0.43 nM.
For `C[C@@H]1Cc2cc3c(cc2[C@@H](c2ccc(N[C@H]4CCN(CCCF)C4)cn2)N1CC(F)(F)CO)OCO3` [Example 4, 2,2-Difluoro-3-((5S,7R)-5-(5-(((S)-1-(3-fluoropropyl)pyrrolidin-3-yl)amino)pyridin-2-yl)-7-methyl-7,8-dihydro-[1,3]dioxolo[4,5-g]isoquinolin-6(5H)-yl)propan-1-ol], in that order: 0.89 nM, 0.28 nM and 0.37 nM.
